# Assays:
# [1] = system: intracellular NAD^+ of WT yeast cells (BY4741); test: Intracellular NAD^+ content; type: cell-based, Saccharomyces cerevisiae; settings: 25 μM, 2 hours; FIG. 2B
# Method: WT yeast cells (BY4741; […] per group) were incubated in the presence of DMSO (control) or PN6 (25 μM), or cultured in YEPD medium adjusted to CR 0.1%, for 2 hours, before being harvested. The harvested cells were extracted with 250 μl of 1 M glacial formic acid saturated with butanol, incubated for 30 minutes on ice. Then, 62.5 μl of 100% trichloroacetic acid (TCA) (w/v) was added to each sample, and the samples were incubated on ice for an additional 15 minutes. The samples were pelleted by centrifugation at 17,000×g and 4° C. for 5 minutes, and the supernatant was transferred to another eppendorf tube. […]
# For analysis, each supernatant or standard sample was divided into two sets: the control set and the test set (150 μl per set), each of which was assembled with an alcohol dehydrogenase (ADH) reaction buffer (345 μl, containing 360 mM Tris (pH 9.7), 240 mM lysine, 0.24% (v/v) EtOH). […] After incubation at room temperature for 10 minutes, the absorbance at 340 nm of each sample was measured by a microplate reader. To determine the NAD^+ levels in each supernatant or standard sample, the absorbance values of the test set (the ADH catalytic set) were divided by the corresponding values of the control set (the water set), which represented the basal NADH levels.
# HUVECs [2] = test: Population doubling (PD) assay; type: cell-based, human; settings: 1 or 2 μM; FIG. 3A
# Method: (§1) For the population doubling (PD) assay, HUVECs (1×10^5 cells/3.5 cm dish) were propagated in the presence of DMSO (i.e., control) or PN6 (1 or 2 μM) until senescence (Day 41), and the cell numbers in each passage were recorded to generate a growth curve that represented the cumulative population doubling. The population doubling levels (PDLs) of HUVECs were calculated in every culture to indicate the proliferation capacity of HUVECs under the respective conditions. The population doublings (PDs) were estimated using the equation: PDL=3.32 (log (total viable cells at harvest/total viable cells at seeding). Also, HUVECs at passages PDL4 and PDL11 cultured in 0 μM (i.e., DMSO alone), 1 μM, or 2 μM PN6 were harvested for further analyses (e.g., western blot and SA-β-gal staining).
# HUVECs [3] = test: Senescence-associated (SA)-β-gal staining; type: cell-based, human; settings: HUVECs at PDL11, versus control without PN6; FIG. 3C
# Method: as §1
# HUVECs at 90% confluency were collected, washed, and fixed with 2% formaldehyde and 0.2% glutaraldehyde for 5 minutes. The cells were then subjected to staining by incubation with a staining solution (40 mmol/l citric acid, sodium phosphate, pH 6.0, 1 mg/ml 5-bromo-4-chloro-3-isolyl-β-D-galactoside (X-gal, Sigma), 5 mmol/l potassium ferrocyanide, 5 mmol/l potassium ferricyanide, 150 mmol/l NaCl, and 2 mmol/l MgCl2) at 37° C. for 18-24 hours. The results of SA-β-gal-positive cells were observed by microscopy, and were counted for over 300 cells in at least three independent fields.
# aged C57BL/6J mice [4] = test: Grip strength test; type: in vivo, mouse; settings: forelimbs, hindlimbs and all four limbs; mid-term and long-term; versus SD group; FIGS. 4E-4G
# Method: The grip strength of the male C57BL/6J mice was measured at 87 weeks (mid-term) and 111 weeks (long-term) of age using an adjustable metallic grid mounted with a force sensor (DTG-5, DigiTech, JP). To conduct the test, the mice were placed on the aforementioned test device and were held gently by the tail, allowing them to grip the grid with forelimbs, hindlimbs, or four limbs (for measuring 2-paw and 4-paw grip strength, respectively). The device automatically measured and recorded the peak force in grams (g). Five trials were performed for each test, and the mean values were used to determine the grip strength of each mouse. Mid-term: SD, n=30; PN6, n=8; long-term: SD, n=23; PN6, n=8.
# aged C57BL/6J mice [5] = test: Rotarod test; type: in vivo, mouse; settings: rotarod at constant or accelerating speed; mid-term and long-term; versus SD-fed mice; FIGS. 4H-4I
# Method: The male C57BL/6J mice were subjected to a rotarod test at 88 weeks (mid-term) and 112 weeks (long-term) of age. The mice underwent a 3-day habituation period, during which they were placed on the rotarod at a constant speed (4 rpm), and were required to remain on the rotarod for 1 minute at a time every day. To conduct the actual test, each mouse was subjected to five trials, with a 10-15 minute rest period between each trial. For each trial, the tests for the constant and accelerated speeds were conducted sequentially according to the following schedule: During a 5-minute trial period, a run consisted of an initial constant rotating speed of 4 rpm and a subsequent accelerated rotating speed accelerated from 4 to 40 rpm was performed 5 times. […] The latency to falling was recorded, and the average latency to falling was calculated for each trial. Data are presented as the average of the 5 trials. Mid-term: SD, n=30; PN6, n=8; long-term: SD, n=22; PN6, n=8.
# aged C57BL/6J mice [6] = test: Intraperitoneal insulin tolerance test (IpITT); type: in vivo, mouse; settings: 107 weeks of age, versus SD; FIGS. 4J-4K
# Method: The male C57BL/6J mice, aged 107 weeks, were fasted for […] while having free access to water, and their body weights were measured before the test started. The test was conducted by fasting the mice for 5 hours, and then injecting them with 1.25 U/kg of human recombinant insulin. Blood droplets were collected from the tail vein just prior to the insulin injection (time 0; baseline), and at 15, 30, 60, and 90 minutes following the injection. Blood glucose levels were measured using a blood glucose meter (Accu-Chek Guide; Roche, DE).
# aged C57BL/6J mice [7] = test: Survival, body weight and food intake of aged mice
smiles,measurement,setting,value
"CCC(CC[C@@H](C)C1CCC2C3CC(=O)[C@H]4C[C@@H](O)CC[C@]4(C)C3CC[C@@]21C)C(C)C (stereo in doubt) [PN6, (24S)-3β-hydroxy-5α-stigmastan-6-one]",NAD^+ content of yeast,[1],significantly increased
same,population doubling level (PDL) of HUVECs,HUVECs [2],increase the PDL
same,number of SA-β-gal-positive senescent cells,HUVECs [3],decrease in the number
same,grip strength,aged C57BL/6J mice [4],increased grip strength
same,motor skills (latency to falling),aged C57BL/6J mice [5],steadily improved
same,insulin sensitivity,aged C57BL/6J mice [6],significantly higher
same,trajectories of body weight,"aged C57BL/6J mice [7]; chow containing 50 mg/kg PN6, FIG. 4B",remained in a steady state
same,lifespan of the aged mice,"aged C57BL/6J mice [7]; chow containing 50 mg/kg PN6, versus SD group, FIG. 4A",significantly increased the lifespan
same,food intake,"aged C57BL/6J mice [7]; versus SD group, entire course of the experiment, FIG. 4C",did not diverge

# From patent publication US20250009763A1, “METHODS FOR EXTENDING LIFESPAN AND/OR DELAYING AGING” (priority 2023, published 2025)
